Laboratory results from patent publication US6653258B1 (priority 1987, dated 2003).
Where two headings read alike, the source gives them in different places. Marks after values point to notes of the source that are not given here.

What was measured:
[1] = test system: foliar fungal diseases of plants; format: in vivo; set-up: key to disease control grading, […] (VINE): 4: no disease; 3: trace −5% of disease on untreated plants; key to disease control grading, PUCCINIA RECONDITA (WHEAT) / disease control grading, VENTURIA INAEQUALIS (APPLE) / disease control grading, CERCOSPORA ARACHIDICOLA (PEANUT) / disease control grading, PH[…] (TOMATO) / disease control grading, P[…] (RICE): 4: no disease; 3: trace −5% of disease on untreated plants; 6-25% of disease on untreated plants; 1: 26-59% of disease on untreated plants; 60-100% of disease on untreated plants; details: for disease control grading, CERCOSPORA ARACHIDICOLA (PEANUT): Cercospora arachidicola on peanut; for disease control grading, P[…] (RICE): P[…] on rice; for disease control grading, PH[…] (TOMATO): Ph[…] on tomato; for disease control grading, PUCCINIA RECONDITA (WHEAT): Puccinia recondita on wheat; for disease control grading, VENTURIA INAEQUALIS (APPLE): Venturia inaequalis on apple; for disease control grading, […] (VINE): […] on vine
Erysiphe graminis = test: Foliar fungal disease test on Erysiphe graminis, plants inoculated 24 hours before treatment (Table V); format: in vivo; set-up: key: 4: no disease; 3: trace −5% of disease on untreated plants; 6-25% of disease on untreated plants; 1: 26-59% of disease on untreated plants; 60-100% of disease on untreated plants
[2] = applied to soil (roots) and foliage one or two days before inoculation
[3] = plants inoculated 24 hours before treatment

## CO/C=C(/C(=O)OC)c1ccccc1COc1cccc(Oc2cccc(Br)c2)c1 [183 (Table I)]
[1]; [2]
  disease control grading, CERCOSPORA ARACHIDICOLA (PEANUT): 4
  disease control grading, P[…] (RICE): 3 (trace −5% of disease on untreated plants)
  disease control grading, PH[…] (TOMATO): 4
  disease control grading, PUCCINIA RECONDITA (WHEAT): 0 (60-100% of disease on untreated plants)
  disease control grading, VENTURIA INAEQUALIS (APPLE): 4
  disease control grading, […] (VINE): 4
Erysiphe graminis; [3]
  disease control grading, ERYSIPHE GRAMINIS (BARLEY): 4

## CO/C=C(/C(=O)OC)c1ccccc1COc1cccc(Oc2ccccc2Cl)c1 [182 (Table I)]
[1]; [2]
  disease control grading, CERCOSPORA ARACHIDICOLA (PEANUT): 4
  disease control grading, P[…] (RICE): 4
  disease control grading, PH[…] (TOMATO): 4
  disease control grading, PUCCINIA RECONDITA (WHEAT): 4
  disease control grading, VENTURIA INAEQUALIS (APPLE): 3 (trace −5% of disease on untreated plants)
  disease control grading, […] (VINE): 4
Erysiphe graminis; [3]
  disease control grading, ERYSIPHE GRAMINIS (BARLEY): 4

## CO/C=C(/C(=O)OC)c1ccccc1COc1ccccn1 [67 (Table I)]
[1]; [2]
  disease control grading, CERCOSPORA ARACHIDICOLA (PEANUT): 4
  disease control grading, P[…] (RICE): 4
  disease control grading, PH[…] (TOMATO): 4
  disease control grading, PUCCINIA RECONDITA (WHEAT): 4
  disease control grading, VENTURIA INAEQUALIS (APPLE): 4
  disease control grading, […] (VINE): 4
Erysiphe graminis; [3]
  disease control grading, ERYSIPHE GRAMINIS (BARLEY): 4

## CO/C=C(/C(=O)OC)c1ccccc1COc1ccccc1Cl [157 (Table I)]
[1]; [2]
  disease control grading, CERCOSPORA ARACHIDICOLA (PEANUT): 4
  disease control grading, P[…] (RICE): 4
  disease control grading, PH[…] (TOMATO): 3 (trace −5% of disease on untreated plants)
  disease control grading, PUCCINIA RECONDITA (WHEAT): 4
  disease control grading, VENTURIA INAEQUALIS (APPLE): 4
  disease control grading, […] (VINE): 4
Erysiphe graminis; [3]
  disease control grading, ERYSIPHE GRAMINIS (BARLEY): 4

## CO/C=C(/C(=O)OC)c1ccccc1COc1ccccc1Br [24 (Table I)]
[1]; [2]
  disease control grading, CERCOSPORA ARACHIDICOLA (PEANUT): 4
  disease control grading, P[…] (RICE): 4
  disease control grading, PH[…] (TOMATO): 4
  disease control grading, PUCCINIA RECONDITA (WHEAT): 4
  disease control grading, VENTURIA INAEQUALIS (APPLE): 4
  disease control grading, […] (VINE): 4
Erysiphe graminis; [3]
  disease control grading, ERYSIPHE GRAMINIS (BARLEY): 4

## CO/C=C(/C(=O)OC)c1ccccc1COc1cccc(/N=C/c2ccccc2)c1 [180 (Table I)]
[1]; [2]
  disease control grading, CERCOSPORA ARACHIDICOLA (PEANUT): 4
  disease control grading, P[…] (RICE): 2 (6-25% of disease on untreated plants)
  disease control grading, PH[…] (TOMATO): 4
  disease control grading, PUCCINIA RECONDITA (WHEAT): 3 (trace −5% of disease on untreated plants)
  disease control grading, VENTURIA INAEQUALIS (APPLE): 0 (60-100% of disease on untreated plants)
  disease control grading, […] (VINE): 4
Erysiphe graminis; [3]
  disease control grading, ERYSIPHE GRAMINIS (BARLEY): 0 (60-100% of disease on untreated plants)

## CO/C=C(/C(=O)OC)c1ccccc1COc1cccc([N+](=O)[O-])c1 [161 (Table I)]
[1]; [2]
  disease control grading, CERCOSPORA ARACHIDICOLA (PEANUT): 3 (trace −5% of disease on untreated plants)
  disease control grading, P[…] (RICE): 0 (60-100% of disease on untreated plants)
  disease control grading, PH[…] (TOMATO): 1 (26-59% of disease on untreated plants)
  disease control grading, PUCCINIA RECONDITA (WHEAT): 3 (trace −5% of disease on untreated plants)
  disease control grading, VENTURIA INAEQUALIS (APPLE): 4
  disease control grading, […] (VINE): 4
Erysiphe graminis; [3]
  disease control grading, ERYSIPHE GRAMINIS (BARLEY): 3 (trace −5% of disease on untreated plants)

## CCN(CC)c1cccc(OCc2ccccc2/C(=C\OC)C(=O)OC)c1 [169 (Table I)]
[1]; [2]
  disease control grading, CERCOSPORA ARACHIDICOLA (PEANUT): 4
  disease control grading, P[…] (RICE): 0 (60-100% of disease on untreated plants)
  disease control grading, PH[…] (TOMATO): 4
  disease control grading, PUCCINIA RECONDITA (WHEAT): 3 (trace −5% of disease on untreated plants)
  disease control grading, VENTURIA INAEQUALIS (APPLE): 4
  disease control grading, […] (VINE): 4
Erysiphe graminis; [3]
  disease control grading, ERYSIPHE GRAMINIS (BARLEY): 1 (26-59% of disease on untreated plants)

## CO/C=C(/C(=O)OC)c1ccccc1COc1c(Cl)cccc1Cl [44 (Table I)]
[1]; [2]
  disease control grading, CERCOSPORA ARACHIDICOLA (PEANUT): 3 (trace −5% of disease on untreated plants)
  disease control grading, P[…] (RICE): 2 (6-25% of disease on untreated plants)
  disease control grading, PH[…] (TOMATO): 3 (trace −5% of disease on untreated plants)
  disease control grading, PUCCINIA RECONDITA (WHEAT): 4
  disease control grading, VENTURIA INAEQUALIS (APPLE): 4
  disease control grading, […] (VINE): 4
Erysiphe graminis; [3]
  disease control grading, ERYSIPHE GRAMINIS (BARLEY): 4

## CO/C=C(/C(=O)OC)c1ccccc1COc1cccc(C=O)c1 [175 (Table I)]
[1]; [2]
  disease control grading, CERCOSPORA ARACHIDICOLA (PEANUT): 1 (26-59% of disease on untreated plants)
  disease control grading, P[…] (RICE): 0 (60-100% of disease on untreated plants)
  disease control grading, PH[…] (TOMATO): 4
  disease control grading, PUCCINIA RECONDITA (WHEAT): 3 (trace −5% of disease on untreated plants)
  disease control grading, VENTURIA INAEQUALIS (APPLE): 4
  disease control grading, […] (VINE): 4
Erysiphe graminis; [3]
  disease control grading, ERYSIPHE GRAMINIS (BARLEY): 1 (26-59% of disease on untreated plants)

## CO/C=C(/C(=O)OC)c1ccccc1COc1cccc(C(F)(F)F)c1 [168 (Table I)]
[1]; [2]
  disease control grading, CERCOSPORA ARACHIDICOLA (PEANUT): 3 (trace −5% of disease on untreated plants)
  disease control grading, P[…] (RICE): 4
  disease control grading, PH[…] (TOMATO): 4
  disease control grading, PUCCINIA RECONDITA (WHEAT): 4
  disease control grading, VENTURIA INAEQUALIS (APPLE): 4
  disease control grading, […] (VINE): 4
Erysiphe graminis; [3]
  disease control grading, ERYSIPHE GRAMINIS (BARLEY): 4

## CO/C=C(/C(=O)OC)c1ccccc1COc1cccc(N)c1 [34 (Table I)]
[1]; [2]
  disease control grading, CERCOSPORA ARACHIDICOLA (PEANUT): 0 (60-100% of disease on untreated plants)
  disease control grading, P[…] (RICE): 0 (60-100% of disease on untreated plants)
  disease control grading, PH[…] (TOMATO): 4
  disease control grading, PUCCINIA RECONDITA (WHEAT): 3 (trace −5% of disease on untreated plants)
  disease control grading, VENTURIA INAEQUALIS (APPLE): 3 (trace −5% of disease on untreated plants)
  disease control grading, […] (VINE): 4
Erysiphe graminis; [3]
  disease control grading, ERYSIPHE GRAMINIS (BARLEY): 0 (60-100% of disease on untreated plants)

## CCCN(Cc1ccccc1/C(=C\OC)C(=O)OC)c1ccccc1 [4 (Table III)]
[1]; 25 ppm foliar spray only
  disease control grading, CERCOSPORA ARACHIDICOLA (PEANUT): 0* (60-100% of disease on untreated plants)
  disease control grading, P[…] (RICE): 0* (60-100% of disease on untreated plants)
  disease control grading, PH[…] (TOMATO): 0* (60-100% of disease on untreated plants)
  disease control grading, PUCCINIA RECONDITA (WHEAT): 0* (60-100% of disease on untreated plants)
  disease control grading, VENTURIA INAEQUALIS (APPLE): 3* (trace −5% of disease on untreated plants)
  disease control grading, […] (VINE): 1* (26-59% of disease on untreated plants)
Erysiphe graminis; 25 ppm foliar spray only
  disease control grading, ERYSIPHE GRAMINIS (BARLEY): 0* (60-100% of disease on untreated plants)

## CO/C=C(/C(=O)OC)c1ccccc1COc1ccc2ccccc2n1 [149 (Table I)]
[1]; [2]
  disease control grading, P[…] (RICE): 4
  disease control grading, PH[…] (TOMATO): 4
  disease control grading, PUCCINIA RECONDITA (WHEAT): 4
  disease control grading, VENTURIA INAEQUALIS (APPLE): 4
  disease control grading, […] (VINE): 4
Erysiphe graminis; [3]
  disease control grading, ERYSIPHE GRAMINIS (BARLEY): 4

## CO/C=C(/C(=O)OC)c1ccccc1COc1cc(Cl)ccc1Cl [158 (Table I)]
[1]; [2]
  disease control grading, CERCOSPORA ARACHIDICOLA (PEANUT): 4
  disease control grading, P[…] (RICE): 4
  disease control grading, PH[…] (TOMATO): 3 (trace −5% of disease on untreated plants)
  disease control grading, PUCCINIA RECONDITA (WHEAT): 4
  disease control grading, VENTURIA INAEQUALIS (APPLE): 4
  disease control grading, […] (VINE): 4
Erysiphe graminis; [3]
  disease control grading, ERYSIPHE GRAMINIS (BARLEY): 4

## CO/C=C(/C(=O)OC)c1ccccc1COc1cccc(O)c1 [171 (Table I)]
[1]; [2]
  disease control grading, CERCOSPORA ARACHIDICOLA (PEANUT): 3 (trace −5% of disease on untreated plants)
  disease control grading, P[…] (RICE): 0 (60-100% of disease on untreated plants)
  disease control grading, PH[…] (TOMATO): 3 (trace −5% of disease on untreated plants)
  disease control grading, PUCCINIA RECONDITA (WHEAT): 3 (trace −5% of disease on untreated plants)
  disease control grading, VENTURIA INAEQUALIS (APPLE): 4
  disease control grading, […] (VINE): 4
Erysiphe graminis; [3]
  disease control grading, ERYSIPHE GRAMINIS (BARLEY): 1 (26-59% of disease on untreated plants)

## CO/C=C(/C(=O)OC)c1ccccc1COc1ccc(Cl)cc1Cl [43 (Table I)]
[1]; [2]
  disease control grading, CERCOSPORA ARACHIDICOLA (PEANUT): 4
  disease control grading, P[…] (RICE): 4
  disease control grading, PH[…] (TOMATO): 4
  disease control grading, PUCCINIA RECONDITA (WHEAT): 4
  disease control grading, VENTURIA INAEQUALIS (APPLE): 4
  disease control grading, […] (VINE): 4
Erysiphe graminis; [3]
  disease control grading, ERYSIPHE GRAMINIS (BARLEY): 4
